Measurements: US20230012936A1, “COMBINATION THERAPY USING GLUCAGON AND GLP-1 CO-AGONISTS FOR THE TREATMENT OF OBESITY” (MEDIMMUNE, LLC, priority 2019, published 2023)

Columns and labels:
Format in all cases: in vivo, human
[1] = tested on: overweight/obese subjects with Type 2 Diabetes Mellitus (T2DM); assay: Mixed-meal tolerance test (MMTT) plasma glucose AUC0-4 h, Phase 2a study
Experimental: (§1) Subjects were admitted to the unit on Day −2 and on Day 27. On Day −1 and on Day 28, following a minimum 10 hour fast, a blood sample for glucose metabolism panel (glucose, insulin, C-peptide, glucagon, and active GLP-1) was taken immediately prior to the subject drinking a standardized mixed meal (t=“0 minutes”). The subject then consumed a can of Ensure Plus, which is a nutritional supplement containing the components of fat, carbohydrate, and protein that make up a standard mixed-meal tolerance test (MMTT). After the meal, timed, serial blood samples were obtained for measurement of glucose and parameters related to glucose metabolism (with no additional food intake during this time). The MMTT was performed on Day-1 and Day 28.
(§2) Blood samples for the glucose metabolism panel were drawn at t=“0 minutes” (before meal) and at 15, 30, 45, 60, 90, 120, 180, and 240 minutes (±5 minutes) after consumption of the standardized meal. Additional sampling for glucagon, insulin, C-peptide, and glucose was taken at 6, 8, 12, and 24 hours (±30 minutes) post-administration (t=“0 minutes”) of the standardized meal on Day −1 and 28.
(§3) The change and percent change from baseline (Day-1) to the end of the 28 days of treatment (Day 28) in glucose AUC0-4 h were determined as measured by the MMTT. In addition, the change from baseline (Day −1) to Day 28 in active GLP-1, glucagon, insulin, and C-peptide AUC0-4 h were also measured by MMTT.

[2] = tested on: overweight/obese subjects with Type 2 Diabetes Mellitus (T2DM); assay: Hemoglobin A1c (HbA1c), Phase 2a study
Experimental: The change in hemoglobin A1c (glycated hemoglobin; HbA1c) from baseline to Day 28 was assessed.

[3] = tested on: overweight/obese subjects with Type 2 Diabetes Mellitus (T2DM); assay: Pancreatic and incretin hormone profiles during the MMTT
Experimental: as §1, §2, §3
The changes in insulin and C-peptide AUC004h from baseline to Day 28 were assessed. At baseline, the mean insulin AUC0-4 h was higher in the cotadutide group compared with the placebo group (91.768 vs 78.472 hr·mU/L, respectively). There was no meaningful difference from baseline in LS mean insulin AUC0-4 h at Day 28 between the cotadutide and placebo groups (−0.08 and 2.78 hr·mU/L, respectively; LS mean difference: −2.86 hr·mU/L; p=0.7760). At baseline, the mean C-peptide AUC0-4 h was similar in the cotadutide and placebo groups (11.278 vs 10.605 hr. μg/L, respectively). There was no meaningful difference from baseline in LS mean C-peptide AUC0-4 h at Day 28 between the cotadutide and placebo groups (0.32 and −0.29 hr. μg/L, respectively (LS mean difference: […]; p=0.4345).

[4] = Day 28, ITT, metformin and dapagliflozin background
[5] = baseline to Day 28, vs placebo, ANCOVA

In the case of CCCCCCCCCCCCCCCC(=O)N[C@@H](CCC(=O)NCCCC[C@H](NC(=O)[C@H](CC(=O)O)NC(=O)[C@H](CO)NC(=O)[C@@H](NC(=O)[C@H](Cc1ccccc1)NC(=O)[C@@H](NC(=O)CNC(=O)[C@H](CCC(N)=O)NC(=O)[C@H](CO)NC(=O)[C@@H](N)Cc1c[nH]cn1)[C@@H](C)O)[C@@H](C)O)C(=O)N[C@@H](CO)C(=O)N[C@@H](CCC(=O)O)C(=O)N[C@@H](Cc1ccc(O)cc1)C(=O)N[C@@H](CC(C)C)C(=O)N[C@@H](CC(=O)O)C(=O)N[C@@H](CO)C(=O)N[C@@H](CCC(=O)O)C(=O)N[C@@H](CCCNC(=N)N)C(=O)N[C@@H](C)C(=O)N[C@@H](CCCNC(=N)N)C(=O)N[C@@H](CC(=O)O)C(=O)N[C@@H](Cc1ccccc1)C(=O)N[C@H](C(=O)N[C@@H](C)C(=O)N[C@@H](Cc1c[nH]c2ccccc12)C(=O)N[C@@H](CC(C)C)C(=O)N[C@@H](CCC(=O)O)C(=O)N[C@@H](C)C(=O)NCC(=O)NCC(=O)O)C(C)C)C(=O)O [Cotadutide], the “Plasma glucose AUC0-4 h after MMTT, Day 28, mean” value [1, 4] is reported as 523.72 mg·h/dL, the “Plasma glucose AUC0-4 h after MMTT, Day 28, median” value [1, 4] is reported as 481.57 mg·h/dL and the “Plasma glucose AUC0-4 h after MMTT, change from baseline, LS mean” value ([1]; baseline to Day 28, ANCOVA) is reported as -154.37 mg·h/dL. The “Plasma glucose AUC0-4 h after MMTT, percent change from baseline, LS mean” value ([1]; baseline to Day 28, ANCOVA) was −22.30%, the “Plasma glucose AUC0-4 h after MMTT, change from baseline, mean” value ([1]; baseline to Day 28, ITT) was -151.29 mg·h/dL and the “Plasma glucose AUC0-4 h after MMTT, change from baseline, median” value ([1]; baseline to Day 28, ITT) was -148.29 mg·h/dL. For the same compound, the “Plasma glucose AUC0-4 h after MMTT, percent change from baseline, mean” value ([1]; baseline to Day 28, ITT) was −22.03%, the “Plasma glucose AUC0-4 h after MMTT, percent change from baseline, median” value ([1]; baseline to Day 28, ITT) was −25.55% and the “Plasma glucose AUC0-4 h after MMTT, change from baseline, LS mean difference” value [1, 5] was -143.09 mg·h/dL. For the same compound, the “Plasma glucose AUC0-4 h after MMTT, percent change from baseline, LS mean difference” value [1, 5] was −22.17%, the “Hemoglobin A1c, Day 28, mean” value ([2]; Day 28, ITT) was 6.75% and the “Hemoglobin A1c, Day 28, median” value ([2]; Day 28, ITT) was 6.65%. For the same compound, the “Hemoglobin A1c, change from baseline, mean” value ([2]; baseline to Day 28) was −1.04%, the “Hemoglobin A1c, change from baseline, median” value ([2]; baseline to Day 28) was −1.10% and the “Hemoglobin A1c, change from baseline, LS mean” value ([2]; baseline to Day 28, ANCOVA) was −1.03%. For the same compound, the “Hemoglobin A1c, change from baseline, LS mean difference” value ([2]; baseline to Day 28, vs placebo) was −0.58%, the “C-peptide AUC0-4 h, change from baseline, LS mean” value ([3]; Day 28) was 0.32 µg·h/L and the “GLP-1 (active form) AUC0-4 h, change from baseline, LS mean” value ([3]; Day 28) was -131.67 ng·h/L. The “Glucagon AUC0-4 h, change from baseline, LS mean” value ([3]; Day 28) was -12.52 ng·h/L, the “Insulin AUC0-4 h, change from baseline, LS mean” value ([3]; Day 28) was −0.08 hr·mU/L and the “GLP-1 (active form) AUC0-4 h, change from baseline, LS mean difference” value ([3]; Day 28, vs placebo) was -0.73 ng·h/L. The Glucagon AUC0-4 h, change from baseline, LS mean difference ([3]; Day 28, vs placebo) was 11.3 ng·h/L and the “Insulin AUC0-4 h, change from baseline, LS mean difference” value ([3]; Day 28, vs placebo) was −2.86 hr·mU/L.
